Entries after “also recorded” stand apart in the source; their conditions may differ.
Columns and labels:
[1] = system: pupil diameter; experiment: Pupillometry during VRH testing; format: in vivo, human; conditions: time after dosing
[2] = Treatment-emergent adverse events
[3] = Pharmacokinetic assessment - abuse quotient (plasma Cmax, Tmax, AUC0-last, AQ); conditions: for AUC(0-t) / Cmax / Tmax: both, human, plasma, oral
[4] = system: respiratory drive; experiment: Ventilatory response to hypercapnia (VRH) test of respiratory drive, phase I placebo-controlled crossover trial

Compound: COc1ccc2c3c1O[C@H]1C(=O)CC[C@@]4(O)[C@@H](C2)N(C)CC[C@]314.Cl [IR Oxycodone, oxycodone hydrochloride]
- initial onset of statistically significant miosis (relative to placebo) ([1]; oxycodone 30 mg): 0.5 h
- initial onset of statistically significant miosis (relative to placebo) ([1]; oxycodone 60 mg): 0.5 h
- treatment-emergent adverse events ([2]; all doses): produced some adverse events
- treatment-emergent adverse events ([2]; oxycodone 60 mg): highest percentage of adverse events in all categories
- Cmax dependence on dose ([3]; BBF 300-900 μg, IR oxycodone 30, 60 mg): increased proportionally with dose
- AUC(0-t) ([3]; 30 mg): 216 ng·h/mL
- Cmax ([3]; 30 mg): 65.8 ng/mL
- Tmax ([3]; 30 mg): 1.2 h
- AUC(0-t) ([3]; 60 mg): 435 ng·h/mL
- Cmax ([3]; 60 mg): 132 ng/mL
- Tmax ([3]; 60 mg): 1.2 h
- effect on respiratory drive (Emax) relative to placebo ([4]; across all doses tested (BBF 300-900 μg; oxycodone 30, 60 mg), hydrochloride): dose-dependent decrease in respiratory drive; also recorded: decreased respiratory drive in a dose-dependent fashion
- least square mean difference in Emax (maximum minute ventilation) versus placebo ([4]; oral oxycodone 30 mg, P=0.668): −828.5
- least square mean difference in Emax (maximum minute ventilation) versus placebo ([4]; oral oxycodone 60 mg, P=0.008): −5188.6
- minute ventilation relative to placebo ([4]; oxycodone 30 mg): significant (P<0.05) decrease at one hour post-dose
- Peak Expiratory Flow Rate (PEFR) relative to placebo ([4]; oxycodone 30 mg, 1 hour post-dose): significant (P<0.05) decrease in PEFR at 1 hour post-dose
- minute ventilation relative to placebo ([4]; oxycodone 60 mg): significant (P<0.05) decreases at 1 hour, 2 hour, and 4 hours post-dose
- Peak Expiratory Flow Rate (PEFR) relative to placebo ([4]; oxycodone 60 mg, 30 minutes post-dose): significant (P<0.05) decrease at 30 minutes
- Peak Expiratory Flow Rate (PEFR) relative to placebo ([4]; oxycodone 60 mg, 1 hour post-dose): significant (P<0.05) decrease in PEFR at 1 hour post-dose
- oxygen saturation level, one subject (adverse event) ([4]; oxycodone 60 mg, approximately 1.5 hours after dosing): 86%
